Measured values published in US8642516B2, “Chemically-defined arrays for screening cell-substrate interactions” (Wisconsin Alumni Research Foundation, priority 2012, dated 2014).

What was measured:
[1] = system: hMSC; assay: Alkaline phosphatase activity staining of hMSCs on SAM arrays; format: cell-based, human; settings: high GRGDSP density SAM spots, 7 days
Text: In this SAM array approach, each spot was designed to contain the same total molar density (mol/cm^2) of peptide from spot to spot. Therefore, control over individual peptide density was achieved by mixing scrambled BR-BP and HPG-BP and mutant GRGESP (SEQ ID NO:19) peptides with functional BR-BP, HPG-BP or GRGDSP (SEQ ID NO:18) peptides, respectively. Therefore, in a typical SAM array, SAMs were locally formed within spots using an alkanethiolate mixture of 95% HS—C11-EG3-OH and 5% HS—C11-EG6-COOH to create substrates with a total of 5% carboxylate groups for peptide conjugation. Here, “X %” refers to the mole percent of alkanethiolate present during SAM formation and subsequently the approximate amount of an alkanethiolate present on the surface after SAM formation. To regulate the density of active peptide present in each spot, mutant and scramble versions of peptides were included during peptide conjugation. […] As mentioned previously, peptide concentrations were easily measured using UV/Vis since all peptides either contained residues that absorbed strongly at 280 nm, or were engineered to contain tryptophan residues in the poly-glycine tail. […]

[2] = system: HUVEC; assay: HUVEC proliferation (Click-it EdU) in response to soluble morphogens on SAM arrays; format: cell-based, human; settings: increased immobilized GRGDSP density
Protocol: Specifically, SAM array spots presenting mixed ligands were prepared as described above. SAM arrays presenting varied ligand densities of covalently immobilized VEGF receptor-binding peptide ([sequence], here referred to as “VR-BP”; SEQ ID NO:17) and varied ligand densities of the fibronectin-derived cell adhesion peptide (GRGDSP, SEQ ID NO:18) were used to probe for changes in HUVEC attachment, proliferation and tubulogenesis. Control over individual ligand density was achieved by mixing scrambled VR-BP and mutant GRGESP (SEQ ID NO:19) with functional VR-BP or GRGDSP (SEQ ID NO:18) peptides, respectively. Therefore, in a typical SAM array, SAMs were locally formed within spots using an alkanethiolate mixture of 94% HS—C11-EG3-OH and 6% HS—C11-EG6-COOH to create substrates with a total of 6% carboxylate groups for peptide conjugation. Next, to create a spot presenting 5% GRGDSP (SEQ ID NO:18) and 1% VR-BP, a 300 μM peptide solution with 250 μM GRGDSP (SEQ ID NO:18) and 50 μM VR-BP was used during peptide conjugation. Likewise, to create a spot presenting 2.5% GRGDSP (SEQ ID NO:18) and 0.1% VR-BP, a 300 μM peptide solution with 125 μM GRGDSP (SEQ ID NO:18), 125 μM GRGESP (SEQ ID NO:19), 5 μM VR-BP and 45 μM scrambled peptide was used during peptide conjugation. In this manner, the amount of active ligand could be varied between spots while holding the total ligand content constant.
Passage 2 HUVECs were expanded at low cell density (less than 70% confluence) on tissue culture polystyrene to no more than 14 population doublings. During HUVEC expansion, cells were cultured in medium 199 (m199, Mediatech, Manassas, Va.) containing 1% penicillin/streptomycin (Hyclone, Logan, Utah) and supplemented with Clonetics EGM-2 BullitKit (Lonza Walkersville, Inc., Walkersville, Md.) containing Hydrocortisone, hFGF-B, VEGF, R3-IGF-1, Ascorbic Acid, Heparin, FBS, hEGF, GA-1000 growth supplements. […]

GRGDSP
staining for alkaline phosphatase activity [1]: increased staining for alkaline phosphatase activity
HUVEC proliferation dependence on ligand density [2]: increased proliferation
